Values quoted from earlier work as cited in article PMC8624105 (Viruses, 2021).

Tested on: NHERF1 PDZ domains
Settings: PDZ/PBM interaction

Substance: ACE2: glycosylated integral membrane protein of 805 residues
- interaction: shown to interact with NHERF1 PDZ domains
